Our source for the cell form values is patent US20230057984A1, “NORMALIZATION OF CULTURE OF CORNEAL ENDOTHELIAL CELLS” (KYOTO PREFECTURAL PUBLIC UNIVERSITY CORPORATION, priority 2011, published 2023).

The assay concerns Human corneal endothelial cells. Nature of the assay: Culture of human corneal endothelial cells with SB431542, cell form (Example 5). Type of assay: cell-based. As to conditions: HCEC, base culture medium with SB431542 1 μmol/L; SB431542-free cells transformed in a fibroblastic manner, multi-layered. As to the method:
• Cynomolgus monkey corneal endothelial cells (MCEC; source of supply and culturing method): the MCECs were cultured by the improved-type protocol described previously [Koizumi N, et al. (2007) Invest Ophthalmol Vis Sci 48: 4519-4526], [Li W, et al. (2007) Invest Ophthalmol Vis Sci 48: 614-620]. Briefly speaking, eyeballs of cynomolgus monkeys, which were humanely killed for another purpose, were purchased (Nissei Bilis Co., Ltd., Ohtsu, Japan and Keari Co., Ltd., Wakayama, Japan) (the method is described above). The Descemet's membrane including corneal endothelial cells were exfoliated, and the corneal endothelial cells were mechanically exfoliated together with basement membranes, followed by treatment using dispase or collagenase (ROCHE catalog number: 10 103 586 001) and then primary culture. Typically, treatment was performed using 1 mg/mL collagenase A (Roche Applied Science, Penzberg, Germany) at 37° C. for 2 hours. For the culture medium, DMEM (INVITROGEN catalog number 12320) was used with 10% FBS (BIOWEST, catalog number: S1820-500) and 2 ng/ml basic FGF (INVITROGEN, catalog number: 13256-029) added thereto. […] In addition, after the cells were fixed, immunostaining was performed using ZO-1, Na^+/K^+-ATPase as a function-associated marker, followed by observation through a fluorescence microscope. […]

Regarding `NC(=O)c1ccc(-c2nc(-c3ccc4c(c3)OCO4)c(-c3ccccn3)[nH]2)cc1` [SB431542], the cell form result was “a layer of cells with a small difference in size of a polygonal shape”.
